Test results: US4578398A, “Substituted 2,3,4,9-tetrahydro-1H-carbazole-1-acetic acid, compositions and use” (American Home Products Corporation, priority 1985, dated 1986)

Assays:
Adjuvant Edema = assay: Preventative Adjuvant Edema (Freund's complete adjuvant, hind paw edema volume in rats); format: in vivo, Male Sprague Dawley rats; settings: p.o., rat, dosed day 0, 1 and 2, edema volume day 3
Description: This test is a primary screen for anti-inflammatory drugs.
Male Sprague Dawley rats (180-200 g) are used. The animals have free access water but food is withdrawn 18 hours before testing.
Drug Preparations and Administration:
Freund's complete adjuvant is prepared by suspending 5 mg killed and dried Mycobacterium butyricum (Difco) in 1 ml liquid paraffin. The test compounds are dissolved in distilled water or suspended in distilled water with a few drops of Tween 80 according to their solubility. […]
The method is essentially that described by Wax et al., J. Pharmacol. Exp. Ther., 192, 166-171 (1975). Groups of rats are injected intradermally in the left hind paw with 0.1 ml of Freund's complete adjuvant. The test compound or vehicle is administered immediately before the adjuvant, 24 hours and 48 hours after the adjuvant (day 0, 1 and 2). The injected hind paw volume is measured before the injection of adjuvant and 24 hrs. after the last drug administration (day 3) by means of a plethysmometer (Buxco Electronics Inc.). The difference between the hind paw volume on day 0 and day 3 represents the edema volume. Phenylbutazone (50 mg./kg, p.o.) is included as a positive control.
The mean edema volume (expressed as ml±SEM) is calculated for each group and the percentage protection conferred by the drug is calculated: [formula] where c is the mean edema volume for the untreated controls and t is the mean edema volume for the drug treated group.

Phenylquinone Writhing = assay: Drug effects in phenylquinone-induced writhing in mice; format: in vivo, Male Swiss albino mice; settings: p.o., mouse, 60 min before phenylquinone i.p., writhes counted 15 min
Description: A further test used to determine the utility of the compounds of the present invention is designated: DRUG EFFECTS IN PHENYLQUINONE-INDUCED WRITHING IN MICE.
The objective of this test is to determine the ability of test drugs to inhibit the nociceptive (pain) response of mice injected with a chemical irritant. This test is a primary screen for both peripheral and centrally acting analgesic drugs.
Male Swiss albino mice (15-25 g). The animals are fasted for 18 hours prior to use but have free access to water.
Drug Preparation and Administration:
Drugs are dissolved or suspended according to their solubility in 0.5% methyl cellulose or 0.5% Tween 80. They are administered by gastric lavage in a volume of 5 ml/kg. For primary screening all drugs are administered at the arbitrary dosage of 200 mg/kg, p.o. to a group of 10 mice.
A modification of the method of Siegmund et al., Proc. Soc. Exp. Biol. Med., 95, 729-731 (1957) is used. Groups of 5 mice are dosed with the test compound or vehicle control. Sixty minutes later the animals are injected i.p. with 0.3 ml/20 g body weight of a 0.02% solution of phenylquinone (PBQ; 2-phenyl-1,4-benzoquinone) and placed in individual observation boxes. The number of writhing or abdominal squirming movements made by each mouse during the following 15 min. period is counted. The experiment is repeated with another group of 5 mice and the mean number of writhes per mouse for a group of 10 mice is calculated.
Drug treated and vehicle-treated control groups are compared and the percentage protection conferred by the drug is calculated: [formula] where c=mean number of writhes in the control group where t=mean number of writhes in the test drug group

| Compound | % Inhibition (Preventative Adjuvant Edema) (Adjuvant Edema; 50 mg/kg) [%] | % Inhibition (Phenylquinone Writhing in Mice) (Phenylquinone Writhing; 200 mg/kg) [%] | % Inhibition (Preventative Adjuvant Edema) (Adjuvant Edema; 25 mg/kg) [%] | % Inhibition (Phenylquinone Writhing in Mice) (Phenylquinone Writhing; 25 mg/kg) [%] |
| --- | --- | --- | --- | --- |
| C=C(C)C1CCC(CC)(CC(=O)O)c2[nH]c3c(CC)cccc3c21 (single isomer, unassigned) [Example 3 d, 4-(1-Methylethenyl)-1,8-diethyl-2,3,4,9-tetrahydro-1H-carbazole-1-acetic Acid] | 25 | 50 | – | – |
| CCc1cccc2c3c([nH]c12)C(CC)(CC(=O)O)CCC3c1ccccc1 (single isomer, unassigned) [Example 2 d, 1,8-Diethyl-2,3,4,9-tetrahydro-4-phenyl-1H-carbazole-1-acetic Acid] | – | – | 12 | 17 |
| C=C(C)C1CCC(CC)(CC(=O)O)c2[nH]c3c(CC)cccc3c21 (single isomer, unassigned) [Example 3 e, 4-(1-Methylethenyl)-1,8-diethyl-2,3,4,9-tetrahydro-1H-carbazole-1-acetic Acid] | – | – | 46 | 0 |
| C=CC1CCC(CC)(CC(=O)O)c2[nH]c3c(CC)cccc3c21 (single isomer, unassigned) [Example 1 g, 4-Ethenyl-1,8-diethyl-2,3,4,9-tetrahydro-1H-carbazole-1-acetic Acid] | – | – | 30 | 21 |
| C=CC1CCC(CC)(CC(=O)O)c2[nH]c3c(CC)cccc3c21 (single isomer, unassigned) [Example 1 h, 4-Ethenyl-1,8-diethyl-2,3,4,9-tetrahydro-1H-carbazole-1-acetic Acid] | – | – | 62 | 0 |
| CCc1cccc2c3c([nH]c12)C(CC)(CC(=O)O)CCC3c1ccccc1 (single isomer, unassigned) [Example 2 e, 1,8-Diethyl-2,3,4,9-tetrahydro-4-phenyl-1H-carbazole-1-acetic acid] | – | – | 37 | 28 |
